Test results reported in paper PMC6800282, “Make the right measurement: Discovery of an allosteric inhibition site for p300-HAT” (Structural Dynamics, 2019).
Several values for one entry are separate records, joined by “and”; a condition that tells them apart may be missing. Equal values may be shown once.

How the values were obtained:
P300-HAT domain = target: T1, P300-HAT domain (Homo sapiens, UniProt Q09472); assay: Dynamic scanning fluorimetry (DSF); format: binding; conditions: for ΔTm at 250 µM: compound at 250 μM
T1 sequence (Q09472 1287-1666): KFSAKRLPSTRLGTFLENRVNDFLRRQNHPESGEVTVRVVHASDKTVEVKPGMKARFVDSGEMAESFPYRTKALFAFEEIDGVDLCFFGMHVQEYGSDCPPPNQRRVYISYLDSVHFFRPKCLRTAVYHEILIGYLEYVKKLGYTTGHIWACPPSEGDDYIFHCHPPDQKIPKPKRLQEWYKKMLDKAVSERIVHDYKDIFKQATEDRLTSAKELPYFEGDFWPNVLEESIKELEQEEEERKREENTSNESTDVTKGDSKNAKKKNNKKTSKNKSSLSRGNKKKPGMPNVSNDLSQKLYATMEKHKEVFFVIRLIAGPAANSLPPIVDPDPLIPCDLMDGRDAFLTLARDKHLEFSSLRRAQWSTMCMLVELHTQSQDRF
Excerpt: Additionally, given their small size, it seemed unlikely that CPI-076 and CPI-090 blocked both sites.

WT P300 HAT domain = target: T2, WT P300 HAT domain (Homo sapiens, UniProt Q09472); assay: p300 HAT domain SPA catalytic assay with peptide substrate; format: biochemical; conditions: for Mechanism of inhibition (excess substrate MOI tests): 10× AcCoA, 30× histone peptide; for IC50: HAT domain construct K1287-F1666
T2 construct: WT HAT construct = K1287-F1666 including the L1520-L1580 regulatory loop, expressed as HisTev fusion; HisTev (polyhistidine tag with TEV site); made in house
T2 sequence (Q09472 1287-1666): T1 sequence (Q09472 1287-1666)
Method: To identify starting points for modulating p300/CBP activity, high throughput screening was carried out using the WT P300 HAT domain (WT HAT construct = K1287-F1666 including the L1520-L1580 regulatory loop, expressed as HisTev fusion) and a peptide substrate in a catalytic assay. After extensive triage, several validated inhibitor types were identified, one of which will be the focus of this report. A more detailed description of the HTS efforts will be the subject of a forthcoming publication by Huhn et al. At this stage of the project, only the HAT domain of p300 was used, as it was not yet feasible to obtain sufficient quantities of full-length P300 (FL-P300) to conduct a high-throughput screen of >150,000 compounds.

[1] = target: T3, full-length human p300 (FL-P300) (Homo sapiens, UniProt Q09472); assay: Full-length p300 SPA; format: biochemical; conditions: for Inhibition of FL enzyme: full-length P300
T3 construct: polyhistidine tag with TEV site (HisTev) (N); StrepII (C); made in house; host or cells: Sf9 insect cells (baculovirus)
T3 sequence (Q09472 whole entry): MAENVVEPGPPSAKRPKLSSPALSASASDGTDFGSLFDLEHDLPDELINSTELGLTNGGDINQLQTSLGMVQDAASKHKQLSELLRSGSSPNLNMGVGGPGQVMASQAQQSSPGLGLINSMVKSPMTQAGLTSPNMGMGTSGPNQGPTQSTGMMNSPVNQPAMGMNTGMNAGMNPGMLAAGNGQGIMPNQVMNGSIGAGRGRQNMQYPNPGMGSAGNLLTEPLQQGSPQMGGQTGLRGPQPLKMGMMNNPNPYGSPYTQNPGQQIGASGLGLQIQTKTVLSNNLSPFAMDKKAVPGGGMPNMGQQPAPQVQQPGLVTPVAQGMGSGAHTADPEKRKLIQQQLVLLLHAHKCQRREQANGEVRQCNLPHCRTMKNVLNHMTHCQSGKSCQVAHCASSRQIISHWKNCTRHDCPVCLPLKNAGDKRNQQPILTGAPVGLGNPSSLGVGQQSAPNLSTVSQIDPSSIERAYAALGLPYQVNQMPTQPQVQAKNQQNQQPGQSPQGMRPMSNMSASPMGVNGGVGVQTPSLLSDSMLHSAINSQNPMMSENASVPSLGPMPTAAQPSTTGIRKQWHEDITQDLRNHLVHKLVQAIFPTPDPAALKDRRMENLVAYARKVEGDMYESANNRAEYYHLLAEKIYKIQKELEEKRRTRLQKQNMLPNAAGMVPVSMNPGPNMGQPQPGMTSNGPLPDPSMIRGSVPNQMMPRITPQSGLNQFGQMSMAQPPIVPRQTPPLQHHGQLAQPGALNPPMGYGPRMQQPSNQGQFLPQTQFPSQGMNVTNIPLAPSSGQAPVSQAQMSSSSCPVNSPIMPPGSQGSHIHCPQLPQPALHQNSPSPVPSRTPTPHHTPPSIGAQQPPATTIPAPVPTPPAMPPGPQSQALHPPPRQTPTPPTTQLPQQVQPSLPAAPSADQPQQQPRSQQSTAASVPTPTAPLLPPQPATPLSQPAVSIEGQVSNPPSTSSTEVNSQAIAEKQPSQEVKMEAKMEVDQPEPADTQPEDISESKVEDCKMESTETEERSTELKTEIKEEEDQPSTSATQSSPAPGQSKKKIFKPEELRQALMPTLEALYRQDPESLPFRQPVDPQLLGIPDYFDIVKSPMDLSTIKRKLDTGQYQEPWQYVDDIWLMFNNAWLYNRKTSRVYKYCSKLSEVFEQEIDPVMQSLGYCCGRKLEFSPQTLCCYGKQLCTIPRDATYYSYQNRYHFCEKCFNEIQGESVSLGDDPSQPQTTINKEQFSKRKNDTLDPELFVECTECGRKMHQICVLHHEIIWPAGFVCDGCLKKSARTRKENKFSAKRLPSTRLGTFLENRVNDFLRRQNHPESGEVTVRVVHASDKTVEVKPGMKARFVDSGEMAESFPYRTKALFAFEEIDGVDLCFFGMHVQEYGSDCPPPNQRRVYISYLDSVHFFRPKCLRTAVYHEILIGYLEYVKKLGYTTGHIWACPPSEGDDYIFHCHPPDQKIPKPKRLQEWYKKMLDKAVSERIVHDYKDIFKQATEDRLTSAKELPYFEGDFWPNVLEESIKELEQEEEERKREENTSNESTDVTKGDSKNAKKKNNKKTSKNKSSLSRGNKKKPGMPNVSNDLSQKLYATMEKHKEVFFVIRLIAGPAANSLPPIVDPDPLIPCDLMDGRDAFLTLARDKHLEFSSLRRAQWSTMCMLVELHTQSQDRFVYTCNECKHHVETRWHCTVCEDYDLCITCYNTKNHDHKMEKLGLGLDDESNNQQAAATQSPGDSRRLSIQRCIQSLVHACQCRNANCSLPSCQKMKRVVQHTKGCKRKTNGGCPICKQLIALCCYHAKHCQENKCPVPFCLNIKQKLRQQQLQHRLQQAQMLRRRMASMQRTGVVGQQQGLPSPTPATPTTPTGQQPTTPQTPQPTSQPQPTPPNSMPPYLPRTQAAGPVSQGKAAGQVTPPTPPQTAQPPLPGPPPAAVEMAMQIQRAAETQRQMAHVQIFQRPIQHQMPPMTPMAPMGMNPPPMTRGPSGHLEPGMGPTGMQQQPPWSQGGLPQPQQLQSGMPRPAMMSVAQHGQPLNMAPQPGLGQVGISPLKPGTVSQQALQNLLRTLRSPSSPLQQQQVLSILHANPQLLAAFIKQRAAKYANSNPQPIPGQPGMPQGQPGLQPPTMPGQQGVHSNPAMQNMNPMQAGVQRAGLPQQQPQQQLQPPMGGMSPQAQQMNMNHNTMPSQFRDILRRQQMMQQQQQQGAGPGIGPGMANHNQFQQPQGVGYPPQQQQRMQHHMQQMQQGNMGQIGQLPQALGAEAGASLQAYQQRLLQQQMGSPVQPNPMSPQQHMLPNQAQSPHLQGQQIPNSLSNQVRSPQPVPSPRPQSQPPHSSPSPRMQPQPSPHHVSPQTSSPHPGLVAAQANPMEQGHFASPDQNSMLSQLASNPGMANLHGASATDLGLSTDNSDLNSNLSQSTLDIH
Excerpt: The sequence of 2414-residue full-length human p300 (FL-P300) was codon-optimized for insect cell expression and synthesized in three parts (Genscript). After assembly of the full-length sequence, the complete ORF was subcloned into a modified pTriEx vector (Novagen/EMD Millipore) to express FL-P300 with both an N-terminal, cleavable polyhistidine tag and C-terminal StrepII tag (HisTev-p300-Strep). Baculovirus was produced by co-transfection of the plasmid into Sf9 cells with linearized baculovirus BestBac2.0 (Expression Systems). The protein was expressed in Sf9 cells and purified with Talon Metal Affinity Resin (Clontech/Takara). The purified protein was concentrated to 1.6 mg/ml in storage buffer (50 mM Tris pH 8, 100 mM NaCl, 10% glycerol, and 0.5 mM TCEP).
At this point in the program, quantities of highly purified FL P300 were more readily available (preparation described above), and so HAT inhibitors were retested against FL P300 under optimized conditions. A large shift relative to the P300-HAT catalytic domain assay was observed.

CBP HAT = CBP HAT (Homo sapiens, UniProt Q92793); assay: CBP HAT SPA; format: biochemical
Sequence of CBP HAT (Q92793 1323-1700 limits assumed): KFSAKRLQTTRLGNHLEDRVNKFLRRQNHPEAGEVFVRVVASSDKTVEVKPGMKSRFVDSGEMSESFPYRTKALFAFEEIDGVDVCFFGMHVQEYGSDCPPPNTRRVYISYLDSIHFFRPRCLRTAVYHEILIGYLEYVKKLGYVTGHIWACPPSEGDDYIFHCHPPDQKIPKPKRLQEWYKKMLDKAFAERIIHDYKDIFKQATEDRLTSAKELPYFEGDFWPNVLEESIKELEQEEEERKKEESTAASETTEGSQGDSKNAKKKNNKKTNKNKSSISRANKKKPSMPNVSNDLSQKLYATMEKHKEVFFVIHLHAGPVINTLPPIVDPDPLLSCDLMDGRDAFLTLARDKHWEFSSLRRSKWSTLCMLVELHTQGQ

[2] = system: H3K18 acetylation in HCT116 cells; assay: Inhibition of H3K18 acetylation in HCT116 cells; format: cell-based; conditions: Homo sapiens, HCT-116, read-out: H3K18Ac EC50
[3] = full-length enzyme, optimized conditions

Row | ΔTm at 250 µM (P300-HAT domain) | IC50 (WT P300 HAT domain) | Inhibition of FL enzyme [1] | FL p300 SPA IC50 [1, 3] | IC50 (CBP HAT) | DSF stabilization (P300-HAT domain) | IC50 [1, 3] | EC50 [2] | Structure (SMILES) | Mechanism of inhibition (excess substrate MOI tests) (WT P300 HAT domain)
1 | 1.3 °C | 20 µM | no measurable FL activity | Undetectable | 39 µM |  |  |  | CC(=O)Nc1cccs1 [CPI-076] | AcCoA- and peptide-modulating compounds but not wholly competitive
2 | 5.8 °C | 0.318 µM and 0.31 µM | does not inhibit the FL enzyme |  | 0.74 µM | strong stabilization | > 160 µM | > 30 µM | Cc1[nH]c2ccccc2c1-c1ncc(C(F)(F)F)cc1Cl [CPI-090] | AcCoA- and peptide-modulating compounds but not wholly competitive
